Experimental data: publication PMC11965977, “Selective Antiproliferative and Apoptotic Effects of 2,6‐Diketopiperazines on MDA‐MB‐231 Triple‐Negative Breast Cancer” (Chemical Biology & Drug Design, 2025)

Assays:
Assay type in all cases: cell-based
[1] = system: MDA‐MB‐231 triple‐negative breast cancer cells; experiment: Antiproliferative activity by MTT assay on MDA‐MB‐231 cell line; conditions: Homo sapiens, 24 h treatment, 1% DMSO, mean ± standard deviation of three separate determinations, read-out: IC50 of inhibitory activity on MDA‐MB‐231 triple‐negative breast cancer cells
Procedure: The antiproliferative activity of 2,6‐diketopiperazines 1, stereoisomers (S)‐2a‐14a, and (R)‐2b‐4b, 6b‐8b, and 11b‐14b was evaluated by the MTT assay on the MDA‐MB‐231 cell line using TSA as positive control at 50 μM. […] Compounds 1 and both (S) and (R) enantiomers reveal differences in their inhibitory effects.
(§1) Cell lines of the MDA‐MB‐231 of TNBC and VERO from healthy kidney cells used in this work were donated by ‘National Institute of Cancerology of the Ministry of Health’ from Mexico. MDA‐MB‐231 and Vero cells preserved at −70°C in DMEM F12 medium Gibco, 10% FBS, 5% DMSO, and 5% glycerol were thawed at 37°C and resuspended in DMEM F12 medium, supplemented with 10% FBS and antibiotic (penicillin 100 UI/mL, streptomycin 100 μg/mL and amphotericin 250 μg/mL) and then centrifuged at 2000 rpm for 10 min. The supernatant was removed, and the cells were resuspended in DMEM F12 medium, supplemented with 10% FBS and antibiotic, seeded in 25 cm^2 culture flasks Corning, and incubated at 37°C with 5% CO2 until at least 90% confluence was reached.
(§2) The MTT assay was used to measure metabolically active cells. Cells were seeded into 96‐well microtiter plates Corning at […] in 100 μL of DMEM‐F12 medium supplemented with 10% FBS and antibiotic Gibco (penicillin 100 IU/mL, streptomycin 100 μg/mL and amphotericin 250 μg/mL). After reaching confluence, cells were treated for 24 h with compounds 1, (S)‐2–14 and (R)‐2–4, 6–8, 11–14 stereoisomers, at concentrations of […], 0.00229, 0.0073, 0.0243, 0.081, 0.27, 0.9, 3.0, 10.0, and 12.0 mM at 1% DMSO, with compounds 1, (S)‐2a, ‐4a, and ‐5a at concentrations of 0.00066, 0.00229, 0.0073, 0.0243, 0.081, 0.27, 0.9, 3.0,10.0, and 12 mM at 1% DMSO, using DMSO 1% in DMEM F12 as the negative control and TSA as the positive control at 50 μM (Sanaei and Kavoosi [2020]). Post‐treatment, cell viability was measured by the conventional MTT dye‐reduction assay. Thus, 20 μL of MTT reagent (5 mg/mL) in PBS 1X was added to each well and incubated at 37 °C for 4 h. Viable cells with active mitochondria reduced the MTT to an insoluble purple formazan precipitate that was solubilized with the subsequent addition of 50 μL of DMSO. The formazan dye was measured spectrophotometrically using a microplate reader Molecular Devices. The cytotoxic impact of each treatment was quantified by determining cell viability as a percentage relative to untreated control cells, referred to as the percentage of control. This is calculated using the formula: [(A595 or A570 nm reading of treated cells)/(A595 or A570 nm reading of untreated cells)] × 100 (Mosmann [1983]; Plumb [1999]). All assays were performed in triplicate. Cell proliferation percentages relative to growth control cells were calculated, and inhibitory concentration 50 (IC50) values were calculated using a regression analysis of the concentration/antiproliferative activity ratio and analyzed using the statistical package prism (Graph‐Pad Software, San Diego, CA, USA).

[2] = Cytotoxicity by MTT assay on healthy Vero kidney cell line; conditions: African green monkey, Vero kidney cells (healthy), even at 12 mM concentrations (data not shown)
Procedure: (§3) Compounds 1, (S)‐2a, −4a, and ‐5a presented the lowest IC50 values of all the compounds tested (see Table 1), so it was interesting to investigate their toxicity in healthy cells.
as §1, §2

Vero kidney cell line = experiment: as above; conditions: concentrations 0.00066 to 12 mM
Procedure: as §3, §1, §2

MDA‐MB‐231 cell line = experiment: Apoptotic induction by Annexin V‐FITC/7AAD flow cytometry on MDA‐MB‐231 cell line; conditions: MDA‐MB‐231, compound at its IC50 concentration
Text: This work presents the apoptotic induction of the 2,6‐DKPs 1, (S)‐stereoisomers 2a to 6a derived from Gly, Ala, Val, Leu, Ile, and Pro α‐amino acids, respectively; as well as 9a to 14a derived from Tyr, Tyr (where the OH group is protected with an acetamide group), Ser, Thr, Met, and Trp α‐amino acids, respectively on the MDA‐MB‐231 cell line by flow cytometry. In this assay, 1% DMSO was used as a negative control and TSA as a positive control (Figure 2). The inhibition of proliferation may be due, among other mechanisms, to arrest in the cell cycle, and/or to an induction of cell death. In the second case, it is important to differentiate whether this death is necrotic inflammatory or apoptotic non‐inflammatory, which is desirable for anti‐cancer agents. […]
FIGURE 5 Flow Cytometry Analysis Strategy. […] A total of 5000/seg events were analyzed for each group.
Assays were performed using the commercial kit Annexin V labeled with the fluorochrome fluorescein isothiocyanate (FITC) BD Biosciences. […] After incubation time, the quantification of MDA‐MB‐231 cells was performed by flow cytometry with a FITC and 7AAD signal detector (FL1) and (FL3) on a FACS aria (Becton Dickinson). 5000/seg events were analyzed. Apoptotic induction percentages were calculated (Graph‐Pad Software, San Diego, CA, USA).

| IC50 [1] | SMILES | other results |
| --- | --- | --- |
| 4940 ± 733 µM | O=C1CN[C@@H](Cc2ccc(OCc3ccccc3)cc2)C(=O)N1 [(S)‐8a] | – |
| 1669 ± 11 µM | O=C1CN[C@@H](Cc2ccc(O)cc2)C(=O)N1 [(S)‐9a] | – |
| 469 ± 860 µM | NC(=O)COc1ccc(C[C@@H]2NCC(=O)NC2=O)cc1 [(S)‐10a] | – |
| 49 ± 26 µM | O=C1CN[C@@H](CO)C(=O)N1 [(S)‐11a] | – |
| 2100 ± 249 µM | CC(O)[C@@H]1NCC(=O)NC1=O (stereo partly drawn) [(S)‐12a] | Decrease in apoptotic induction at 48 h compared to the 24 h test (MDA‐MB‐231 cell line): 3% |
| 978 ± 96 µM | CSCC[C@@H]1NCC(=O)NC1=O [(S)‐13a] | – |
| 12 µM | O=C1CN[C@@H](Cc2c[nH]c3ccccc23)C(=O)N1 [(S)‐14a] | – |
| 4.6 ± 0.019 µM | O=C1CNCC(=O)N1 [Compound 1] | viability at 24 h, 12 mM [2]: 100%; Toxicity on Vero kidney cell line (in words) (Vero kidney cell line): did not exhibit toxicity |

Further lines, the compound ahead of its results:

| SMILES | IC50 [1] | other results |
| --- | --- | --- |
| C[C@H]1NCC(=O)NC1=O [(R)‐2b] | 21 µM | – |
| CC(C)[C@H]1NCC(=O)NC1=O [(R)‐3b] | 822 ± 1350 µM | – |
| CC(C)C[C@H]1NCC(=O)NC1=O [(R)‐4b] | 265 µM | – |
| O=C1CN2CCC[C@@H]2C(=O)N1 [(R)‐6b] | 584 ± 1010 µM | – |
| O=C1CN[C@H](Cc2ccccc2)C(=O)N1 [(R)‐7b] | 2150 ± 202 µM | – |
| O=C1CN[C@H](Cc2ccc(OCc3ccccc3)cc2)C(=O)N1 [(R)‐8b] | 3640 ± 1220 µM | – |
| O=C1CN[C@H](CO)C(=O)N1 [(R)‐11b] | 801 ± 208 µM | – |
| CC(O)[C@H]1NCC(=O)NC1=O (stereo partly drawn) [(R)‐12b] | 1720 ± 85 µM | – |
| CSCC[C@H]1NCC(=O)NC1=O [(R)‐13b] | 1310 ± 284 µM | – |
| O=C1CN[C@H](Cc2c[nH]c3ccccc23)C(=O)N1 [(R)‐14b] | 357 ± 190 µM | – |
| C[C@@H]1NCC(=O)NC1=O [(S)‐2a] | 4.6 ± 0.169 µM | viability at 24 h, 12 mM [2]: 100%; Toxicity on Vero kidney cell line (in words) (Vero kidney cell line): did not exhibit toxicity |
| CC(C)[C@@H]1NCC(=O)NC1=O [(S)‐3a] | 17 µM | – |
| CC(C)C[C@@H]1NCC(=O)NC1=O [(S)‐4a] | 5.5 ± 0.235 µM | viability at 24 h, 12 mM [2]: 100%; Toxicity on Vero kidney cell line (in words) (Vero kidney cell line): did not exhibit toxicity |
| CCC(C)[C@@H]1NCC(=O)NC1=O (stereo partly drawn) [(S)‐5a] | 6.8 ± 0.028 µM | viability at 24 h, 12 mM [2]: 100%; Toxicity on Vero kidney cell line (in words) (Vero kidney cell line): did not exhibit toxicity |
| O=C1CN2CCC[C@H]2C(=O)N1 [(S)‐6a] | 1020 ± 167 µM | – |
| O=C1CN[C@@H](Cc2ccccc2)C(=O)N1 [(S)‐7a] | 155 ± 322 µM | – |
